Experimental data as given in patent US12552844B2, “De-epitoped alpha gliadin and use of same for the management of celiac disease and gluten sensitivity” (Ukko Inc., priority 2019, dated 2026).
Where no end group is shown, it is not given here.

The sequences below were run against MHC II molecules (assay: MHC/peptide competition binding assay with a radiolabelled known MHC binding peptide). Conditions: purified MHC, incubation 2-4 days, non-binding defined as IC50≥30,000 nM.
Protocol: Measurement of MHC/peptide interactions: Computational prediction algorithm was used to generate a list of putative non-binding peptides. Those peptides were synthesized and binding to MHC was measured as described in Sidney J et al, 2013.
Briefly, competition assays using different concentrations of WT and modified gluten peptides are conducted by diluting the peptides in NP40 buffer, and incubation for 2-4 days with purified MHC and a radiolabelled known MHC binding peptide. MHC II molecules are purified by affinity chromatography, and peptides are radiolabeled using the chloramine T method. After an incubation period, the bound and unbound radiolabeled species are separated, and their relative amounts are determined by either size-exclusion gel-filtration chromatography or monoclonal antibody capture of MHC. The percent of bound radioactivity is then determined. For each modified peptide, IC50 values of WT and modified peptide are calculated. The validated gluten peptide epitopes are analyzed for MHC binding as a positive control. Some of the peptides are tested also in a deamidated form.
In the case of FPPQPHPFPPQPQPF [Variant P3h], the IC50 is reported as over 40 µM.
With HLPGPQPHLSYPQPH [Variant P2e] the IC50 was over 40 µM.
Sequence LQLQPFPQPHLFPPQ [Variant P1c] has an IC50 of 38.6 µM.
Work on LQLQPFPQPPLPYGQ [Variant P1e] yielded an IC50 of 30.7 µM.
Work on PGGQPHLPGGQPQPF [Variant P3g] yielded an IC50 of over 40 µM.
With PQPFPPLPYPQPQSF [Variant P3i] the IC50 was over 40 µM.
With PYSQPHRPYHQPQPF [Variant P3e] the IC50 was over 40 µM.
QLPYSQPHRPYHQPQ [Variant P2d] showed an IC50 of over 40 µM.
Work on SLPMPQPSLRYRQPS [Variant P2i] yielded an IC50 of over 40 µM.
In the case of TLPSPQPTLGYGQPT [Variant P2h], the IC50 is reported as over 40 µM.
